Reference: ChEMBL document CHEMBL1201862, “PubChem BioAssay data set” (2004)
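Each compound was tested at five concentrations against cells in 96-well plates for 48 hours. GI50 is the concentration that inhibits growth by half.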 The source made the active and inactive calls. No stated cut-off is given here; in the data, active = GI50 up to about 1.1 µM and inactive = higher.

Experiments:
Assay in all cases: NCI-60 cell line screen, 48 h
[1] = test system: A549
[2] = test system: COLO 205
[3] = test system: HCT-116
[4] = test system: HT-29
[5] = test system: KM12
[6] = test system: LOX IMVI
[7] = test system: M14
[8] = test system: NCI-H23
[9] = test system: NCI-H522
[10] = test system: OVCAR-5
[11] = test system: SF-539
[12] = test system: SK-MEL-2
[13] = test system: SK-MEL-5
[14] = test system: SN12C
[15] = test system: SW-620
[16] = test system: U-251
[17] = test system: UACC-257
[18] = test system: UACC-62
[19] = test system: Malme-3M
[20] = test system: NCI-H226

`NC(CCOCCP(=O)(O)CCC1C=CC=CC1)C(=O)O` (configuration not stated) was tested, and the GI50 [1] was > 100 µM (inactive), the GI50 [2] was > 100 µM (inactive) and the GI50 [3] was > 100 µM (inactive). For the same compound, the GI50 [4] was > 100 µM (inactive), the GI50 [5] was > 100 µM (inactive) and the GI50 [6] was 73.5 µM (inactive). The GI50 [7] was > 100 µM (inactive), the GI50 [8] was > 100 µM (inactive) and the GI50 [9] was > 100 µM (inactive). The GI50 [10] was > 100 µM (inactive), the GI50 [11] was > 100 µM (inactive) and the GI50 [12] was > 100 µM (inactive). For the same compound, the GI50 [13] was > 100 µM (inactive), the GI50 [14] was > 100 µM (inactive) and the GI50 [15] was > 100 µM (inactive). The GI50 [16] was > 100 µM (inactive), the GI50 [17] was > 100 µM (inactive) and the GI50 [18] was 43.8 µM (inactive).

`Nc1c(C(=O)Nc2ccc(C3=NCCN3)cc2)cccc1C(=O)Nc1ccc(C2=NCCN2)cc1` was tested, and the GI50 [1] was > 100 µM (inactive), the GI50 [2] was > 100 µM (inactive) and the GI50 [3] was > 100 µM (inactive). The GI50 [4] was > 100 µM (inactive), the GI50 [5] was > 100 µM (inactive) and the GI50 [6] was > 100 µM (inactive). The GI50 [19] was > 100 µM (inactive), the GI50 [20] was > 100 µM (inactive) and the GI50 [8] was > 100 µM (inactive). The GI50 [9] was > 65.2 µM (inactive), the GI50 [10] was > 100 µM (inactive) and the GI50 [11] was > 100 µM (inactive). The GI50 [12] was > 100 µM (inactive), the GI50 [13] was > 100 µM (inactive) and the GI50 [14] was > 88.1 µM (inactive). For the same compound, the GI50 [15] was > 100 µM (inactive), the GI50 [16] was 53.5 µM (inactive) and the GI50 [17] was > 100 µM (inactive). The GI50 [18] was > 100 µM (inactive).

`Nc1nc(N)c2c(CCc3ccc(C(=O)N[C@@H](CCC(=O)O)C(=O)O)cc3)ccnc2n1` was tested, and the GI50 [1] was 0.0731 µM (active), the GI50 [2] was 1.27 µM (inactive) and the GI50 [3] was < 0.01 µM (active). The GI50 [4] was < 0.0294 µM (active), the GI50 [5] was < 0.0283 µM (active) and the GI50 [6] was < 0.01 µM (active). For the same compound, the GI50 [7] was < 0.0218 µM (active), the GI50 [20] was > 100 µM (inactive) and the GI50 [8] was < 0.0308 µM (active). The GI50 [9] was 0.0855 µM (active), the GI50 [11] was < 0.0145 µM (active) and the GI50 [12] was > 28.8 µM (inactive). The GI50 [13] was 0.0855 µM (active), the GI50 [14] was < 0.0297 µM (active) and the GI50 [17] was 0.257 µM (active). The GI50 [18] was < 0.0169 µM (active).

In the case of `COc1cc2c(cc1Oc1c(Oc3c(O)c(OC)cc4c3C(CC(C)C)N(C)CC4)c(OC)cc3c1C(CC(C)C)N(C)CC3)C(CC(C)C)N(C)CC2` (configuration not stated), the GI50 [1] is reported as 0.429 µM (active), the GI50 [2] is reported as 0.351 µM (active) and the GI50 [3] is reported as 0.643 µM (active). The GI50 [4] was 0.547 µM (active), the GI50 [5] was 0.721 µM (active) and the GI50 [6] was 0.931 µM (active). For the same compound, the GI50 [19] was 1.11 µM (active), the GI50 [20] was 0.422 µM (active) and the GI50 [8] was 0.787 µM (active). The GI50 [9] was 0.458 µM (active), the GI50 [10] was 5.11 µM (inactive) and the GI50 [11] was 0.376 µM (active). For the same compound, the GI50 [12] was 0.867 µM (active), the GI50 [13] was 0.375 µM (active) and the GI50 [14] was 0.577 µM (active). For the same compound, the GI50 [15] was 0.879 µM (active), the GI50 [16] was 0.492 µM (active) and the GI50 [17] was 1.45 µM (inactive). For the same compound, the GI50 [18] was 0.573 µM (active).

With `C=C1CC(OC)(C(O)C(=O)N[C@H]2OCO[C@H]3C2O[C@H](C[C@@H](CO)OC)C(C)(C)C3OC)O[C@H](C)[C@@H]1C` (some centres not stated) the GI50 [1] was < 0.00931 µM (active), the GI50 [2] was < 0.00931 µM (active) and the GI50 [3] was < 0.00931 µM (active). For the same compound, the GI50 [4] was < 0.00931 µM (active), the GI50 [5] was < 0.00931 µM (active) and the GI50 [6] was < 0.00931 µM (active). The GI50 [20] was < 0.00931 µM (active), the GI50 [8] was < 0.00931 µM (active) and the GI50 [10] was < 0.00931 µM (active). For the same compound, the GI50 [11] was < 0.00931 µM (active), the GI50 [12] was 0.0931 µM (active) and the GI50 [13] was < 0.00931 µM (active). For the same compound, the GI50 [14] was < 0.00931 µM (active), the GI50 [15] was < 0.00931 µM (active) and the GI50 [16] was < 0.00931 µM (active). The GI50 [17] was < 0.00931 µM (active) and the GI50 [18] was < 0.00931 µM (active).

With `O=C(NN1C(=O)C(Cl)C1c1cccc([N+](=O)[O-])c1)c1ccccc1O` (configuration not stated) the GI50 [1] was > 100 µM (inactive), the GI50 [2] was > 100 µM (inactive) and the GI50 [3] was > 100 µM (inactive). For the same compound, the GI50 [4] was > 100 µM (inactive), the GI50 [5] was > 100 µM (inactive) and the GI50 [7] was > 100 µM (inactive). For the same compound, the GI50 [19] was 59.8 µM (inactive), the GI50 [8] was > 100 µM (inactive) and the GI50 [9] was 28.3 µM (inactive). For the same compound, the GI50 [10] was > 100 µM (inactive), the GI50 [11] was > 100 µM (inactive) and the GI50 [12] was > 100 µM (inactive). For the same compound, the GI50 [13] was > 100 µM (inactive), the GI50 [14] was > 100 µM (inactive) and the GI50 [15] was > 100 µM (inactive). The GI50 [16] was > 100 µM (inactive), the GI50 [17] was > 100 µM (inactive) and the GI50 [18] was > 100 µM (inactive).

`O=C(/C=C/CC(O)(c1ccccc1)c1ccccc1)Nc1ccccc1Cl` was tested, and the GI50 [2] was > 100 µM (inactive), the GI50 [3] was > 100 µM (inactive) and the GI50 [4] was > 100 µM (inactive). For the same compound, the GI50 [5] was > 100 µM (inactive), the GI50 [7] was > 100 µM (inactive) and the GI50 [19] was 45.3 µM (inactive). For the same compound, the GI50 [20] was > 100 µM (inactive), the GI50 [8] was > 100 µM (inactive) and the GI50 [9] was > 100 µM (inactive). For the same compound, the GI50 [10] was > 100 µM (inactive), the GI50 [12] was > 100 µM (inactive) and the GI50 [13] was > 100 µM (inactive). For the same compound, the GI50 [14] was > 100 µM (inactive), the GI50 [15] was > 100 µM (inactive) and the GI50 [16] was > 100 µM (inactive). The GI50 [17] was > 100 µM (inactive) and the GI50 [18] was > 100 µM (inactive).

In the case of `O=C(Nc1ccc([N+](=O)[O-])cc1[N+](=O)[O-])C(=O)C(C(=O)c1ccc2ccccc2c1)C1OC(=O)c2ccccc21` (configuration not stated), the GI50 [1] is reported as 25.5 µM (inactive), the GI50 [2] is reported as 15.8 µM (inactive) and the GI50 [3] is reported as 17.6 µM (inactive). For the same compound, the GI50 [4] was 16.7 µM (inactive), the GI50 [5] was 22.4 µM (inactive) and the GI50 [6] was 16.7 µM (inactive). The GI50 [7] was 15.9 µM (inactive), the GI50 [20] was 2.69 µM (inactive) and the GI50 [8] was 7.29 µM (inactive). The GI50 [9] was 10.4 µM (inactive), the GI50 [10] was 20.2 µM (inactive) and the GI50 [11] was 4.5 µM (inactive). The GI50 [12] was 22.3 µM (inactive), the GI50 [13] was 15.3 µM (inactive) and the GI50 [14] was 17.8 µM (inactive). The GI50 [15] was 13.2 µM (inactive), the GI50 [16] was 4.33 µM (inactive) and the GI50 [17] was 24.4 µM (inactive). For the same compound, the GI50 [18] was 16.6 µM (inactive).

`COc1ccccc1N1C(Cl)C(=O)C1c1c[nH]c2ccccc12` (configuration not stated) was tested, and the GI50 [1] was > 100 µM (inactive), the GI50 [2] was > 100 µM (inactive) and the GI50 [3] was > 100 µM (inactive). For the same compound, the GI50 [4] was > 100 µM (inactive), the GI50 [5] was > 100 µM (inactive) and the GI50 [7] was > 100 µM (inactive). The GI50 [8] was > 100 µM (inactive), the GI50 [9] was > 100 µM (inactive) and the GI50 [10] was 13.2 µM (inactive). For the same compound, the GI50 [11] was > 100 µM (inactive), the GI50 [12] was > 100 µM (inactive) and the GI50 [13] was > 100 µM (inactive). The GI50 [14] was > 100 µM (inactive), the GI50 [15] was > 100 µM (inactive) and the GI50 [16] was > 100 µM (inactive). The GI50 [17] was > 100 µM (inactive) and the GI50 [18] was > 100 µM (inactive).

`CN(c1ccccc1)c1c(-c2ccccc2)c(=O)oc2c1ccc1occc12` was tested, and the GI50 [1] was > 100 µM (inactive), the GI50 [2] was > 100 µM (inactive) and the GI50 [3] was > 100 µM (inactive). The GI50 [4] was > 95.7 µM (inactive), the GI50 [5] was > 100 µM (inactive) and the GI50 [6] was > 100 µM (inactive). The GI50 [19] was > 100 µM (inactive), the GI50 [20] was 0.348 µM (active) and the GI50 [8] was > 100 µM (inactive). The GI50 [9] was > 100 µM (inactive), the GI50 [11] was > 100 µM (inactive) and the GI50 [12] was > 100 µM (inactive). For the same compound, the GI50 [13] was > 100 µM (inactive), the GI50 [14] was > 100 µM (inactive) and the GI50 [15] was > 100 µM (inactive). For the same compound, the GI50 [16] was > 100 µM (inactive), the GI50 [17] was > 100 µM (inactive) and the GI50 [18] was > 100 µM (inactive).

In the case of `Cn1c(=O)nc2n(-c3ccc(Cl)cc3Cl)c3ccccc3nc-2c1=O`, the GI50 [1] is reported as 1.62 µM (inactive), the GI50 [2] is reported as 1.7 µM (inactive) and the GI50 [3] is reported as 2.18 µM (inactive). The GI50 [4] was 2.53 µM (inactive), the GI50 [5] was 3.96 µM (inactive) and the GI50 [7] was 1.76 µM (inactive). For the same compound, the GI50 [19] was 1.24 µM (inactive), the GI50 [8] was 3.27 µM (inactive) and the GI50 [10] was 33.8 µM (inactive). For the same compound, the GI50 [11] was 6.58 µM (inactive), the GI50 [12] was 2.87 µM (inactive) and the GI50 [13] was 1.41 µM (inactive). For the same compound, the GI50 [16] was 5.06 µM (inactive) and the GI50 [18] was 2.04 µM (inactive).
